Consider 24 compounds from PMC4021201, “Repositioning: the fast track to new anti-malarial medicines?” (Malaria Journal, 2014).

By EC50 is commonly meant the midpoint of the concentration-response curve. What is called Cmax is the peak of the concentration-time curve. The term Tmax denotes the time at which the peak concentration occurs.

One data set concerns P. falciparum 3D7. Kind of data set: SYBR I dye DNA staining assay (SJCRH), P. falciparum 3D7. The settings on record: read-out: EC50 3D7.
In a further data set the test system is P. falciparum K1. Kind of data set: SYBR I dye DNA staining assay (SJCRH), P. falciparum K1. The settings on record: read-out: EC50 K1.
A short description of data set [1]: Pharmacokinetics in P. falciparum-infected humanized mice. The settings on record: for Cmax / Tmax: NOD-scid IL-2Rγ^null, mouse; for Cmax / Tmax / AUC (0–t): whole blood; for DNAUC(0–t): dose-normalized AUC(0–t); for DNAUC(0–t) / AUC (0–t): mean (SD).
Protocol: The pharmacokinetics of compounds after oral administration was determined concurrently in the same mice used for the therapeutic efficacy assay. Samples were taken at 0.25, 0.5, 1, 3, 6, 8, and 24 hours after the first dose. Compound levels were measured in 25 μL blood samples that were mixed with 25 μL of saponin (0.1% in water) and processed under standard liquid–liquid extraction conditions [39]. Pharmacokinetic parameters were calculated using WinNonlin 5.2 non-compartmental analysis.
Data set [2] relates to P. falciparum Pf3D7^0087/N9. Kind of data set: Plasmodium falciparum huSCID humanized mouse model, four-day test. The settings on record: for reduction of parasitaemia versus vehicle: 10, 30 mg/kg sc target doses, up to maximum tolerated dose; for ED90: parasitaemia at day 7 after infection, once daily for four days, mean (95% CI).
Protocol: In vivo testing using this model was performed by GSK at Tres Cantos, against P. falciparum 3D7 (in vivo strain Pf3D7^0087/N9generated by GSK using Pf3D7 obtained from Eduardo Dei-Cas, Institute Pasteur, Lille, France [36]) growing in peripheral blood of female NOD-scid IL-2Rγ^null mice engrafted with human erythrocytes, i e, a ‘humanized’ mouse model, following published protocols [36, 37]. Briefly, animals were infected intravenously with 20×10^6 infected erythrocytes on day 0. […] Dosing was initiated at the maximum tolerated dose in mice on day 3 after infection and continued once daily for four days. Each experimental group was n = 3 mice unless otherwise stated. Control animals received vehicle only and a quality control assay used chloroquine at target doses of 3 mg/kg and 7 mg/kg. Venous blood samples for parasitology (2 μL) were taken at days 3, 5, and 7 after infection. Anti-malarial efficacy was assessed using a standard four-day test (i e, at day 7) and blood parasitaemia was measured by fluorescence-activated cell sorting (FACS) analysis [38]. The limit of detection (per cent of P. falciparum) was 0.01%. The number of parasites ×10^6 cells was recorded and data were analysed by non-linear fitting to a logistic equation of log10 (per cent parasitaemia at day 7 after infection) versus the dose level administered.
Per cent parasitaemia at day 7 after infection in treated versus control animals was analysed using a one factor ANOVA with Tukey’s post-test analysis. […] ED90 was calculated similarly. Analysis was performed using WinNonlin 5.2 and GraphPad Prism 5.0.
The mark [3] stands for this setting: Plasmodium falciparum, 3D7, 72 h.
Setting [4] is: Plasmodium falciparum, K1, 72 h.
Setting [5] is: target dose 10 mg/kg subcutaneous (experimental 6.4 CEP-701, 8.3 CEP-1347).
Setting [6] is: target dose 30 mg/kg subcutaneous (experimental 15.0 CEP-701, 22.0 CEP-1347).
[7] abbreviates: mean (95% CI), SYBR I fluorescence assay, chloroquine-sensitive strain, 72 h.
[8] abbreviates: mean (95% CI), SYBR I fluorescence assay, chloroquine-resistant strain, 72 h.
Setting [9] is: target dose 50 mg/kg oral (experimental 36 mg/kg).

Read-outs that look alike come from different tables or passages of the source. Starred links: 1 amine or outer side, 2 acyl side, 3 side chain; linkers in the order of their positions; H or OH if unused. Positions of bridges follow the written chain, without caps; N, C: chain ends. Non-standard residues stand in square brackets, D forms with d. Residues, ends and D or L forms follow the SMILES beside them. Chains are numbered I, II in the order given. Actinocin(9to1) = Cc1c2oc3c(C)ccc(C(=O)[*:1])c3nc-2c(C(=O)[*:2])c(N)c1=O; NMeV = CN[C@H](C(=O)O)C(C)C; Sar = CNCC(=O)O

Protocol for P. falciparum 3D7: (§1) SJCRH used the SYBR® I dye DNA staining assay, which measures proliferation of P. falciparum in human erythrocytes [27]. Plasmodium falciparum strains 3D7 (chloroquine-sensitive) and K1 (chloroquine-resistant) (American Type Culture Collection [ATCC], Manassas, VA, USA) were maintained using established methods [28]. The assay method is as previously described [29]. […] EC50 values were calculated with the robust investigation of screening experiments (RISE) algorithm with a four-parameter logistic equation.
(§2) This group used the SYBR® I dye DNA staining assay, which measures proliferation of P. falciparum in human erythrocytes [1]. Plasmodium falciparum strains 3D7 (chloroquine-sensitive) and K1 (chloroquine-resistant) (American Type Culture Collection [ATCC], Manassas, VA) were maintained in group O? erythrocytes (Key Biologics, LLC, Memphis, TN) using established methods [2]. Serial dilutions of the test compound in DMSO were prepared to provide 10 concentrations for each compound. […] After addition of 10 µL mixed DNA dye solution in PBS per test well (10× SYBR® I, [Invitrogen, Carlsbad, CA]), 0.5% [vol/vol] Triton X-100, 0.5 mg/mL saponin), plates were shaken for 1 min at 750 rpm and incubated in the dark for 90 min. Fluorescence was measured with an EnVision®spectrophotometer (PerkinElmer, Waltham, MA) [3]. […] EC50 values were calculated with the robust investigation of screening experiments (RISE) algorithm with a four-parameter logistic equation.
Protocol for P. falciparum K1: as §1, §2

With `Nc1nc(N)c2nc(CNc3ccc(C(=O)N[C@@H](CCC(=O)O)C(=O)O)cc3)cnc2n1` [Aminopterin], the EC50 is 320 nM in the data set with P. falciparum 3D7 (setting [3]) and 1250 nM in the data set with P. falciparum K1 (setting [4]).
Regarding `CC(C)C[C@H](NC(=O)[C@H](Cc1ccccc1)NC(=O)c1cnccn1)B(O)O` [Bortezomib], the results for the concentration giving a half-maximal response (EC50) in the data set with P. falciparum 3D7 (setting [3]) and in the data set with P. falciparum K1 (setting [4]) were 20 nM and 80 nM, respectively.
With `COc1cc(Nc2c(C#N)cnc3cc(OCCCN4CCN(C)CC4)c(OC)cc23)c(Cl)cc1Cl` [Bosutinib], the EC50 came to 220 nM with P. falciparum 3D7 (setting [3]) and 650 nM with P. falciparum K1 (setting [4]).
In the case of `CCSCc1ccc2c(c1)c1c3c(c4c5cc(CSCC)ccc5n5c4c1n2[C@H]1C[C@](O)(C(=O)OC)[C@]5(C)O1)CNC3=O` [CEP-1347], in data set [1] (sc, 10 mg/kg), the peak concentration (Cmax) came to 830 ng/mL and the Tmax was 4.8 h. For the same compound, in data set [1] (sc, 30 mg/kg), the concentration peaked (Cmax) at 730 ng/mL and the Tmax is 6 h. In data set [1] (setting [5]), the “DNAUC(0–t)” value is 0.98 (0.22) μg · h · mL^−1 · day^−1 and the “AUC (0–t)” value is given as 8.1 (1.8) μg · h · mL. In data set [1] (setting [6]), the “DNAUC(0–t)” value is on record as 0.45 (0.092) μg · h · mL^−1 · day^−1 and the “AUC (0–t)” value was 9.9 (2.1) μg · h · mL. For the same compound, the “reduction of parasitaemia versus vehicle” value in data set [2] is “did not reach statistical significance”.
On to `CC(=O)[C@@]1(O)CC[C@H]2[C@@H]3C=C(Cl)C4=CC(=O)[C@@H]5C[C@@H]5[C@]4(C)[C@H]3CC[C@@]21C` [Cyproterone], for which the EC50 was found to be 560 nM with P. falciparum 3D7 (setting [7]) and 890 nM in the data set on P. falciparum K1 (setting [8]).
For `Cc1c2oc3c(C)ccc(C(=O)N[C@@H]4C(=O)N[C@H](C(C)C)C(=O)N5CCC[C@H]5C(=O)N(C)CC(=O)N(C)[C@@H](C(C)C)C(=O)O[C@@H]4C)c3nc-2c(C(=O)N[C@@H]2C(=O)N[C@H](C(C)C)C(=O)N3CCC[C@H]3C(=O)N(C)CC(=O)N(C)[C@@H](C(C)C)C(=O)O[C@@H]2C)c(N)c1=O` [Dactinomycin] (I: T[dV]P[Sar][NMeV] / II: T[dV]P[Sar][NMeV]; ester I:1-I:C, II:1-II:C; linker I:N-II:N via Actinocin(9to1)), the EC50 in the data set with P. falciparum 3D7 (setting [3]) stood at 0.9 nM; in the data set on P. falciparum K1 (setting [4]) it was 1 nM.
For the compound `CN(CCCCCCCCCCN(C)C(=O)Oc1cccc([N+](C)(C)C)c1)C(=O)Oc1cccc([N+](C)(C)C)c1` [Demecarium], the EC50 in the data set with P. falciparum 3D7 (setting [3]) came to 510 nM; in the data set with P. falciparum K1 (setting [4]), 300 nM.
The like results for `Cc1cc(N)c2ccccc2[n+]1CCCCCCCCCC[n+]1c(C)cc(N)c2ccccc21` [Dequalinium] were, in that order, 60 nM and 60 nM.
For `Cc1c(N(C)CS(=O)(=O)O)c(=O)n(-c2ccccc2)n1C` [Dipyrone], the EC50 is 840 nM in the data set on P. falciparum 3D7 (setting [7]) and 500 nM in the data set with P. falciparum K1 (setting [8]).
Regarding `COc1cccc2c1C(=O)c1c(O)c3c(c(O)c1C2=O)C[C@@](O)(C(=O)CO)C[C@@H]3O[C@H]1C[C@H](N)[C@H](O)[C@H](C)O1` [Doxorubicin], the EC50 came to 210 nM with P. falciparum 3D7 (setting [3]) and 200 nM in the data set with P. falciparum K1 (setting [4]).
The like results for `CS(=O)(=O)CCNCc1ccc(-c2ccc3ncnc(Nc4ccc(OCc5cccc(F)c5)c(Cl)c4)c3c2)o1` [Lapatinib] were, in that order, 560 nM and greater than 7370 nM.
For the compound `C[C@]12O[C@H](C[C@]1(O)CO)n1c3ccccc3c3c4c(c5c6ccccc6n2c5c31)CNC4=O` [Lestaurtinib], the peak concentration (Cmax) in data set [1] (sc, 10 mg/kg) was 630 ng/mL; in data set [1] (sc, 30 mg/kg), 2800 ng/mL. The Tmax in data set [1] (sc, 10 mg/kg) came out at 0.78 h; in data set [1] (sc, 30 mg/kg) it was 4 h. In addition, the “DNAUC(0–t)” value in data set [1] (setting [5]) was 0.44 (0.072) μg · h · mL^−1 · day^−1; in data set [1] (setting [6]), 1.6 (0.47) μg · h · mL^−1 · day^−1. The “AUC (0–t)” value in data set [1] (setting [5]) was 2.8 (0.46) μg · h · mL; in data set [1] (setting [6]), 23.8 (6.8) μg · h · mL. The figures for the EC50 in the data set with P. falciparum 3D7 (setting [3]) and in the data set on P. falciparum K1 (setting [4]) were 490 nM and 340 nM, respectively. Further, the “reduction of parasitaemia versus vehicle” value in data set [2] is listed as “did not reach statistical significance”.
Regarding `CN(Cc1cnc2nc(N)nc(N)c2n1)c1ccc(C(=O)N[C@@H](CCC(=O)O)C(=O)O)cc1` [Methotrexate], the EC50 with P. falciparum 3D7 (setting [3]) was 10 nM; in the data set with P. falciparum K1 (setting [4]), 20 nM.
Regarding `CN(C)c1ccc2nc3ccc(=[N+](C)C)cc-3sc2c1` [Methylene blue], the EC50 in the data set on P. falciparum 3D7 (setting [3]) and in the data set with P. falciparum K1 (setting [4]) was less than 0.3 nM each time.
For the compound `CO[C@@H]1[C@H](N(C)C(=O)c2ccccc2)C[C@H]2O[C@]1(C)n1c3ccccc3c3c4c(c5c6ccccc6n2c5c31)C(=O)NC4` [Midostaurin], the EC50 with P. falciparum 3D7 (setting [3]) worked out at 350 nM.
`CO[C@@]12[C@H](COC(N)=O)C3=C(C(=O)C(C)=C(N)C3=O)N1C[C@@H]1N[C@@H]12` [Mitomycin]: the EC50 came to 970 nM in the data set on P. falciparum 3D7 (setting [3]) and 510 nM in the data set with P. falciparum K1 (setting [4]).
In the case of `C/C=C/C[C@@H](C)C(=O)[C@H]1C(=O)N[C@@H](C(C)C)C(=O)N(C)CC(=O)N(C)[C@@H](CC(C)C)C(=O)N[C@@H](C(C)C)C(=O)N(C)[C@@H](CC(C)C)C(=O)N[C@@H](C)C(=O)N[C@H](C)C(=O)N(C)[C@@H](CC(C)C)C(=O)N(C)[C@@H](CC(C)C)C(=O)N(C)[C@@H](C(C)C)C(=O)N1C` [PSC-833, valspodar], the Cmax in data set [1] (po, 50 mg/kg) worked out at 1390 ng/mL; in data set [1] (po, 100 mg/kg), 1010 ng/mL; in data set [1] (po, 200 mg/kg) it was 910 ng/mL. Further, the Tmax was determined as 3.3 h in data set [1] (po, 50 mg/kg); 5.33 h in data set [1] (po, 100 mg/kg); 2 h in data set [1] (po, 200 mg/kg). Besides, the “DNAUC(0–t)” value is on record as 0.36 (0.082) μg · h · mL^−1 · day^−1 in data set [1] (setting [9]), 0.13 (0.04) μg · h · mL^−1 · day^−1 in data set [1] (target dose 100 mg/kg oral) and 0.065 (0.03) μg · h · mL^−1 · day^−1 in data set [1] (target dose 200 mg/kg oral). Further, the “AUC (0–t)” value in data set [1] (setting [9]) is recorded as 12.90 (2.97) μg · h · mL; in data set [1] (target dose 100 mg/kg oral) it was 12.26 (4.25) μg · h · mL; in data set [1] (target dose 200 mg/kg oral), 13.05 (6.05) μg · h · mL. Moreover, in data set [2] (blood exposure needed to inhibit parasitaemia at day 7 by 90% vs vehicle), the AUCED90 is listed as greater than 17.33 μg · h · mL^−1 · day^−1. The ED90 in data set [2] and in data set [2] (listed as Valspodar) was greater than 200 mg/kg in each case.
As to `N=C(N)c1ccc(OCCCCCOc2ccc(C(=N)N)cc2)cc1` [Pentamidine], the EC50 is 220 nM with P. falciparum 3D7 (setting [3]) and 50 nM in the data set with P. falciparum K1 (setting [4]).
For `O=c1[nH]c2ccccc2n1C1CCN(CCCC(c2ccc(F)cc2)c2ccc(F)cc2)CC1` [Pimozide] the same measures were 700 nM and greater than 12800 nM.
The like results for `CC[C@H](C)C(=O)O[C@H]1C[C@H](O)C=C2C=C[C@H](C)[C@H](CC[C@@H](O)C[C@@H](O)CC(=O)O)[C@H]21` [Pravastatin] were, in that order, 750 nM and 120 nM.
In the case of `CCCNCC(O)COc1ccccc1C(=O)CCc1ccccc1` (stereo not shown) [Propafenone], the EC50 in the data set on P. falciparum 3D7 (setting [3]) was 1220 nM; in the data set on P. falciparum K1 (setting [4]) it was 330 nM.
The like results for `CNC(=O)c1cc(Oc2ccc(NC(=O)Nc3ccc(Cl)c(C(F)(F)F)c3)cc2)ccn1` [Sorafenib] were, in that order, 2710 nM and 880 nM.
For `Cc1ccnc(NS(=O)(=O)c2ccc(N)cc2)n1` [Sulfamerazine], the EC50 in the data set on P. falciparum 3D7 (setting [3]) and in the data set with P. falciparum K1 (setting [4]) was 10 nM throughout.
Take `CN1CCN(CC/C=C2/c3ccccc3Sc3ccc(S(=O)(=O)N(C)C)cc32)CC1` [Thiothixene]: the results for the EC50 in the data set with P. falciparum 3D7 (setting [3]) and in the data set with P. falciparum K1 (setting [4]) were 40 nM and 20 nM, respectively.
